# Counter-ions that a name gives are not always drawn.
# Molecular target: hNav1.7 (Homo sapiens (Human), UniProt Q15858)
# Experiment: Tritiated sulfonamide competitive binding to membranes from cells expressing hNav1.7 and the β1 subunit;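 also: Filter-bound radioactivity counted by liquid scintillation, nonspecific binding defined with excess unlabelled ligand, IC50 fitted to percent inhibition of specific binding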
# Conditions: not given
# Sequence of hNav1.7 (Q15858 other isoform, or with tags, fused parts or gaps): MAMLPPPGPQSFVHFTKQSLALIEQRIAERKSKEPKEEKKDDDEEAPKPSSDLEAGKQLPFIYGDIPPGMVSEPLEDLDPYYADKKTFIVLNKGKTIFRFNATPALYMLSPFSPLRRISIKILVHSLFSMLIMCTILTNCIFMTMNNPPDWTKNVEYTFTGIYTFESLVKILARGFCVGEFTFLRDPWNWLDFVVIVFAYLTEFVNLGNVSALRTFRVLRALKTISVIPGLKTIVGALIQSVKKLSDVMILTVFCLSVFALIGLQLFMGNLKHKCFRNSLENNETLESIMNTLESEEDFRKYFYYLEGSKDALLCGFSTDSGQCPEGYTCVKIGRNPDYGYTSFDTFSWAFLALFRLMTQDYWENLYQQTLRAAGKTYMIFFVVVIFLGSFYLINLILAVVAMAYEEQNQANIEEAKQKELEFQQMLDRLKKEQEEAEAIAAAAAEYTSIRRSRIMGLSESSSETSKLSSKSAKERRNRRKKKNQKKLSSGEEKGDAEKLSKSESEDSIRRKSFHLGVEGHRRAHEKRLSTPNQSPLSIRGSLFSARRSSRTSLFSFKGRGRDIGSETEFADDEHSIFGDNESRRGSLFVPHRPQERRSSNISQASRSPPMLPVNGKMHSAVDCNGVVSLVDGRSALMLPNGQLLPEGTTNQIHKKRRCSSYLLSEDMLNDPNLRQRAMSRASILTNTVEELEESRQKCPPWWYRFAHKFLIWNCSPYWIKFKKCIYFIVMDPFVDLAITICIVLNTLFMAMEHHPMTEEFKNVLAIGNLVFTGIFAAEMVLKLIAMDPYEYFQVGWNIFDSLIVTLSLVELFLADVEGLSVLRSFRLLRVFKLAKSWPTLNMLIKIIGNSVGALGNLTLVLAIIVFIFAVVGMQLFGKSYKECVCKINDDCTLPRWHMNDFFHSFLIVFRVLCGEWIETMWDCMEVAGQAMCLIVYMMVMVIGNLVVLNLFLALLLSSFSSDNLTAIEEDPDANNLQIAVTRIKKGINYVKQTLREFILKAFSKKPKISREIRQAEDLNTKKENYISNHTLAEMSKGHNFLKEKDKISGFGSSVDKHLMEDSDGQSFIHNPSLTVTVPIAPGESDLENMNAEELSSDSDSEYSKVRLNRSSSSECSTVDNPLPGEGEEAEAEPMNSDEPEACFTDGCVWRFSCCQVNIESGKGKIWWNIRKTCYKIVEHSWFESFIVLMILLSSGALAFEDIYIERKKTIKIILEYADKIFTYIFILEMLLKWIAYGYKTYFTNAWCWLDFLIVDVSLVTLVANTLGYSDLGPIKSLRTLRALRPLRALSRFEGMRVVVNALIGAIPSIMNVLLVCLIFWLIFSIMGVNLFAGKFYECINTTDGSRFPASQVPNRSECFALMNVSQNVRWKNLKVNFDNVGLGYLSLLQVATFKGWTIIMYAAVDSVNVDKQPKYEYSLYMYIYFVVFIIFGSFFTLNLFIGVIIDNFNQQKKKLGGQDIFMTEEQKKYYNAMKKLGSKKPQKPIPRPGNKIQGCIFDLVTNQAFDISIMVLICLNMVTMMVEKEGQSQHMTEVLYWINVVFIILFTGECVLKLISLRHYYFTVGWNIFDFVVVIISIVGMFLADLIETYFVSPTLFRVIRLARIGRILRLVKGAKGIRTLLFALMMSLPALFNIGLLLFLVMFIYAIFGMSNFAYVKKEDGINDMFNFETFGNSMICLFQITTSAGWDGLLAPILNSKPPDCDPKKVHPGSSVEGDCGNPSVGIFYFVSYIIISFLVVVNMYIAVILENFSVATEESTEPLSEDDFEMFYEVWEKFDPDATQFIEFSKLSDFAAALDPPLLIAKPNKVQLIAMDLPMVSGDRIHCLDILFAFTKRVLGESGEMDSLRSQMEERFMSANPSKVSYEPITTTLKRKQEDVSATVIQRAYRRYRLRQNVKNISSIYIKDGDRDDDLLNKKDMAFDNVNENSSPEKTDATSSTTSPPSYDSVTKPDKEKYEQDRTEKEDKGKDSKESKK
# Sequence of hNav1.7 (Q07699 19-218 partner): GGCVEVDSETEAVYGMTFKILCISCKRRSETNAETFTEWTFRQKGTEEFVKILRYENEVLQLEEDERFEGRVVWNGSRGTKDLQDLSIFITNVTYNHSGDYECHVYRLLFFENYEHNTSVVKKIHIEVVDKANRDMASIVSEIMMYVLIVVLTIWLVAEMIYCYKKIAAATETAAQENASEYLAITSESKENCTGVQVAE
row,SMILES,IC50 [nM]
1,"C[C@H](c1cc(Cl)cc(Cl)c1)N1C[C@@H]2C[C@H]1CN2Cc1cc(F)c(C(=O)NS(=O)(=O)C2CC2)cc1C1CC1 (single isomer, unassigned) [Example 563, trifluoroacetic acid salt]",4.2
2,"CC(=O)N1CCC[C@@H](Oc2cc(F)c(C(=O)NS(=O)(=O)C3CC3)cc2C2CC2)C1 [Example 4, (R)-4-((1-acetylpiperidin-3-yl)oxy)-5-cyclopropyl-N-(cyclopropylsulfonyl)-2-fluorobenzamide]",6600
3,"O=C(NS(=O)(=O)C1CC1)c1cc(C2CC2)c(O[C@@H]2CCCN(Cc3ccc(F)cc3Cl)C2)cc1F [Example 7, (R)-4-((1-(2-chloro-4-fluorobenzyl)piperidin-3-yl)oxy)-5-cyclopropyl-N-(cyclopropylsulfonyl)-2-fluorobenzamide]",3.5
4,"O=C(NS(=O)(=O)C1CC1)c1cc(C2CC2)c(O[C@@H]2CCCN(Cc3ccc(F)cc3F)C2)cc1F [Example 9, (R)-5-cyclopropyl-N-(cyclopropylsulfonyl)-4-((1-(2,4-difluorobenzyl)-piperidin-3-yl)oxy)-2-fluorobenzamide]",3.5
5,"CS(=O)(=O)NC(=O)c1cc(C2CC2)c(O[C@@H]2CCCN(Cc3c(Cl)cccc3Cl)C2)cc1F [Example 10, (R)-5-cyclopropyl-4-((1-(2,6-dichlorobenzyl)piperidin-3-yl)oxy)-2-fluoro-N-(methylsulfonyl)benzamide]",4.1
6,"CS(=O)(=O)NC(=O)c1cc(C2CC2)c(O[C@@H]2CCCN(Cc3ccnnc3)C2)cc1F [Example 13, (R)-5-cyclopropyl-2-fluoro-N-(methylsulfonyl)-4-((1-(pyridazin-4-ylmethyl)piperidin-3-yl)oxy)benzamide]",1490
7,"O=C(NS(=O)(=O)C1CC1)c1cc(C2CC2)c(O[C@@H]2CCCN(Cc3ccc(Cl)c(Cl)c3)C2)cc1F [Example 18, (R)-5-cyclopropyl-N-(cyclopropylsulfonyl)-4-((1-(3,4-dichlorobenzyl)-piperidin-3-yl)oxy)-2-fluorobenzamide]",2.6
8,"O=C(NS(=O)(=O)N1CCC1)c1cc(C2CC2)c(O[C@@H]2CCCN(Cc3ccc(Cl)c(Cl)c3)C2)cc1F [Example 19, (R)—N-(azetidin-1-ylsulfonyl)-5-cyclopropyl-4-((1-(3,4-dichlorobenzyl)piperidin-3-yl)oxy)-2-fluorobenzamide]",4.9
9,"CS(=O)(=O)NC(=O)c1cc(C2CC2)c(O[C@@H]2CCCN(Cc3ccc(F)cc3)C2)cc1F [Example 20, (R)-5-cyclopropyl-2-fluoro-4-((1-(4-fluorobenzyl)piperidin-3-yl)oxy)-N-(methlysulfonyl)benzamide]",30.9
10,O=C(NS(=O)(=O)N1CCC1)c1cc(C2CC2)c(O[C@@H]2CCCN(Cc3ccc(F)cc3)C2)cc1F [Example 22],18.2
11,"O=C(NS(=O)(=O)N1CCC1)c1cc(C2CC2)c(O[C@@H]2CCCN(Cc3ccccc3Cl)C2)cc1F [Example 25, (R)—N-(azetidin-1-ylsulfonyl)-4-((1-(2-chlorobenzyl)piperidin-3-yl)oxy)-5-cyclopropyl-2-fluorobenzamide]",3.2
12,"CS(=O)(=O)NC(=O)c1cc(C2CC2)c(O[C@@H]2CCCN(Cc3cccc(Cl)c3)C2)cc1F [Example 26, (R)-4-((1-(3-chlorobenzyl)piperidin-3-yl)oxy)-5-cyclopropyl-2-fluoro-N-(methylsulfonyl)benzamide acid]",6.1
13,"CS(=O)(=O)NC(=O)c1cc(C2CC2)c(O[C@@H]2CCCN(Cc3ccc(F)cc3C(F)(F)F)C2)cc1F [Example 34, (R)-5-cyclopropyl-2-fluoro-4-((1-(4-fluoro-2-(trifluoromethyl)benzyl)piperidin-3-yl)oxy)-N-(methylsulfonyl)benzamide]",1.9
14,O=C(NS(=O)(=O)C1CC1)c1cc(C2CC2)c(O[C@@H]2CCCN(Cc3ccc(F)cc3C(F)(F)F)C2)cc1F [Example 35],2.4

# Next, values leading:
row,IC50 [nM],SMILES
1,7.1,"O=C(NS(=O)(=O)N1CCC1)c1cc(C2CC2)c(O[C@@H]2CCCN(Cc3cc(Cl)cc(Cl)c3)C2)cc1F [Example 5, (R)—N-(azetidin-1-ylsulfonyl)-5-cyclopropyl-4-((1-(3,5-dichlorobenzyl)piperidin-3-yl)oxy)-2-fluoroenzamide]"
2,8.1,"O=C(NS(=O)(=O)N1CCC1)c1cc(C2CC2)c(O[C@@H]2CCCN(Cc3ccc(F)cc3F)C2)cc1F [Example 8, (R)—N-(azetidin-1-ylsulfonyl)-5-cyclopropyl-4-((1-(2,4-difluorobenzyl)-piperidin-3-yl)oxy)-2-fluorobenzamide]"
3,47.4,"O=C(NS(=O)(=O)N1CCC1)c1cc(C2CC2)c(O[C@@H]2CCCN(CC3CCCCC3)C2)cc1F [Example 11, (R)—N-(azetidin-1-ylsulfonyl)-4-((1-(cyclohexylmethyl)piperidin-3-yl)oxy)-5-cyclopropyl-2-fluorobenzamide]"
4,11.3,"Cn1nc(-c2ccccc2)cc1CN1CCC[C@@H](Oc2cc(F)c(C(=O)NS(C)(=O)=O)cc2C2CC2)C1 [Example 12, (R)-5-cyclopropyl-2-fluoro-4-((1-((1-methyl-3-phenyl-1H-pyrazol-5-yl)methyl)piperidin-3-yl)oxy)-N-(methylsulfonyl)benzamide]"
5,318,"CS(=O)(=O)NC(=O)c1cc(C2CC2)c(O[C@@H]2CCCN(Cc3cccc4c3CNC4)C2)cc1F [Example 14, (R)-5-cyclopropyl-2-fluoro-4-((1-(isoindolin-4-ylmethyl)piperidin-3-yl)oxy)-N-(methylsulfonyl)benzamide]"
6,3.4,"O=C(NS(=O)(=O)C1CC1)c1cc(C2CC2)c(O[C@@H]2CCCN(C(c3ccccc3)c3ccccc3)C2)cc1F [Example 16, (R)-4-((1-benzhydrylpiperidin-3-yl)oxy)-5-cyclopropyl-N-(cyclopropylsulfonyl)-2-fluorobenzamide]"
7,11.2,"O=C(NS(=O)(=O)C1CC1)c1cc(C2CC2)c(O[C@@H]2CCCN(Cc3ccc(F)cc3)C2)cc1F [Example 21, (R)-5-cyclopropyl-N-(cyclopropylsulfonyl)-2-fluoro-4-((1-(4-fluorobenzyl)piperidin-3-yl)oxy)benzamide]"
8,1.7,"O=C(NS(=O)(=O)C1CC1)c1cc(C2CC2)c(O[C@@H]2CCCN(Cc3ccccc3Cl)C2)cc1F [Example 23, (R)-4-((1-(2-chlorobenzyl)piperidin-3-yl)oxy)-5-cyclopropyl-N-(cyclopropylsulfonyl)-2-fluorobenzamide]"
9,6,"CS(=O)(=O)NC(=O)c1cc(C2CC2)c(O[C@@H]2CCCN(Cc3ccccc3Cl)C2)cc1F [Example 24, (R)-4-((1-(2-chlorobenzyl)piperidin-3-yl)oxy)-5-cyclopropyl-2-fluoro-N-(methylsulfonyl)benzamide]"
10,7.4,"O=C(NS(=O)(=O)N1CCC1)c1cc(C2CC2)c(O[C@@H]2CCCN(Cc3cccc(Cl)c3)C2)cc1F [Example 28, (R)—N-(azetidin-1-ylsulfonyl)-4-((1-(3-chlorobenzyl)piperidin-3-yl)oxy)-5-cyclopropyl-2-fluorobenzamide]"
11,1.7,"CS(=O)(=O)NC(=O)c1cc(C2CC2)c(O[C@@H]2CCCN(Cc3ccc(Cl)cc3Cl)C2)cc1F [Example 29, (R)-5-cyclopropyl-4-((1-(2,4-dichlorobenzyl)piperidin-3-yl)oxy)-2-fluoro-N-(methylsulfonyl)benzamide]"
12,2.7,"O=C(NS(=O)(=O)N1CCC1)c1cc(C2CC2)c(O[C@@H]2CCCN(Cc3ccc(Cl)cc3Cl)C2)cc1F [Example 30, (R)—N-(azetidin-1-ylsulfonyl)-5-cyclopropyl-4-((1-(2,4-dichlorobenzyl)piperidin-3-yl)oxy)-2-fluorobenzamide]"
13,2.6,"O=C(NS(=O)(=O)C1CC1)c1cc(C2CC2)c(O[C@@H]2CCCN(Cc3ccc(Cl)cc3Cl)C2)cc1F [Example 31, (R)-5-cyclopropyl-N-(cyclopropylsulfonyl)-4-((1-(2,4-dichlorobenzyl)piperidin-3-yl)oxy)-2-fluorobenzamide]"
14,5.4,"Cc1ccc(CN2CCC[C@@H](Oc3cc(F)c(C(=O)NS(=O)(=O)C4CC4)cc3C3CC3)C2)cc1 [Example 32, (R)-5-cyclopropyl-N-(cyclopropylsulfonyl)-2-fluoro-4-((1-(4-methylbenzyl)piperidin-3-yl)oxy)benzamide]"
15,13.2,"Cc1ccc(CN2CCC[C@@H](Oc3cc(F)c(C(=O)NS(=O)(=O)N4CCC4)cc3C3CC3)C2)cc1 [Example 33, (R)—N-(azetidin-1-ylsulfonyl)-5-cyclopropyl-2-4-fluoro-((1-(4-methylbenzyl)piperidin-3-yl)oxy)benzamide]"

# Same assay, conditions: read-out: Ligand Binding Assay; 100 pM [3H]compound, membranes with hNav1.7 and β1 subunit, 18 h, room temperature
row,IC50 [nM],SMILES
1,19.1,"C[C@@H](c1ccc(F)cc1)N1CCC[C@@H](Oc2cc(F)c(C(=O)NS(C)(=O)=O)cc2C2CC2)C1 (single isomer, unassigned) [Example 315]"
2,306,"CS(=O)(=O)NC(=O)c1cc(C2CC2)c(OCC2CN(C(c3ccccc3)c3ccccn3)C2)cc1F (stereo in doubt) [Example 119, (S)-5-Cyclopropyl-2-fluoro-N-(methylsulfonyl)-4-((1-(phenyl(pyridin-2-yl)methyl)azetidin-3-yl)methoxy)benzamide]"
3,17,"CS(=O)(=O)NC(=O)c1cc(C2CC2)c(OCC2CCN(C(c3cc(Cl)cc(Cl)c3)C(F)F)CC2)cc1F (stereo in doubt) [Example 225, (S)-5-cyclopropyl-4-((1-(1-(3,5-dichlorophenyl)-2,2-difluoroethyl)piperidin-4-yl)methoxy)-2-fluoro-N-(methylsulfonyl)benzamide]"
4,1.6,"CC(c1cc(Cl)cc(Cl)c1F)N1CCC(COc2cc(F)c(C(=O)NS(C)(=O)=O)cc2C2CC2)CC1 (stereo in doubt) [Example 236, (R)-5-cyclopropyl-4-((1-(1-(3,5-dichloro-2-fluorophenyl)ethyl)piperidin-4-yl)methoxy)-2-fluoro-N-(methylsulfonyl)benzamide]"
5,2.6,"O=C(NS(=O)(=O)C1CC1)c1cc(C2CC2)c(O[C@@H]2CCCN(Cc3cc(Cl)cc(Cl)c3)C2)cc1F [Example 3, (R)-5-cyclopropyl-N-(cyclopropylsulfonyl)-4-((1-(3,5-dichlorobenzyl)piperidin-3-yl)oxy)-2-fluorobenzamide]"

# — patent US9546164B2 (GENENTECH, INC., priority 2013, dated 2017)
